The target of assay [1] is Mitogen-activated protein kinase kinase kinase kinase 5 (Homo sapiens) (UniProt Q9Y4K4). Put plainly: Selectivity interaction (Kinase panel (KiNativ target engagement assay in Jurkat cells)) EUB0001635a MAP4K5. The note with it: Selectivity number of off-targets 0.0, Selectivity number of targets 233.0, Source Knowledge https://www.sciencedirect.com/science/article/pii/S2451945619300674?via%3Dihub, at 1 µM. Type of assay: cell-based.

Assay [2] has as its system Tyrosine-protein kinase ABL1 (Homo sapiens), P00519 [H396P]. Put plainly: (§1) Selectivity interaction (KinomeScan (DiscoverX)) EUB0000229b ABL1. The note with it: at 1 µM.
Assay [3] relates to Tyrosine-protein kinase ABL1 (Homo sapiens), P00519 [Q252H]. The assay is described as §1. The note with it: at 1 µM.
Assay [4] has as its system Tyrosine-protein kinase ABL1 (Homo sapiens), P00519 [T315I]. Described as §1. The note with it: at 1 µM.
Assay [5] has as its system Tyrosine-protein kinase ABL1 (Homo sapiens), P00519 [Y253F]. Described as §1. The note with it: at 1 µM.
In assay [6] the test system is Tyrosine-protein kinase ABL1 (Homo sapiens), P00519 [F317I]. The description is as §1. The note with it: at 1 µM.
Assay [7] has as its system Tyrosine-protein kinase ABL1 (Homo sapiens), P00519 [E255K]. The assay is described as §1. The note with it: at 1 µM.
Assay [8] relates to Tyrosine-protein kinase ABL1 (Homo sapiens), P00519 [M351T]. Described as §1. The note with it: at 1 µM.
Assay [9] deals with Tyrosine-protein kinase ABL1 (Homo sapiens), P00519 [F317L]. The description is as §1. The note with it: at 1 µM.
Assay [10] relates to eIF-2-alpha kinase GCN2 (Homo sapiens), Q9P2K8 [S808G]. Put plainly: Selectivity interaction (KinomeScan (DiscoverX)) EUB0000655a EIF2AK4. The note with it: at 10 µM.
In assay [11] the target is T1, Muscarinic acetylcholine receptor M2 (Homo sapiens) (UniProt P08172).
T1 sequence (whole entry): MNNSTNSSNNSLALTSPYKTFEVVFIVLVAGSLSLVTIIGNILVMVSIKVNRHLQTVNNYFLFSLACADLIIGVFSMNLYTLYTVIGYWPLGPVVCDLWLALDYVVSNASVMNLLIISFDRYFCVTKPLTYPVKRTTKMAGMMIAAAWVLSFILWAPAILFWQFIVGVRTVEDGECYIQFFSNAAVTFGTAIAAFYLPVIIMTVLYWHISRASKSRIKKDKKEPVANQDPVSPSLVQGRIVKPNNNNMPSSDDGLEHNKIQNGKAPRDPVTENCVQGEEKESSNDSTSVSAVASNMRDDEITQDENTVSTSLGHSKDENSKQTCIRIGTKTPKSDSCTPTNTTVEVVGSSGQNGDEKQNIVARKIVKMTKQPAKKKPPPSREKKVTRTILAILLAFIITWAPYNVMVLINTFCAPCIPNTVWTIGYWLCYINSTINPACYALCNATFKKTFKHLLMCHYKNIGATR
The experiment in a line: Selectivity interaction (Panel of kinases, GPCRs, ion channels and transporters (enzymatic assay)) EUB0000266bCl CHRM2.

In assay [12] the target is T2, Receptor-type tyrosine-protein kinase FLT3 (Homo sapiens, UniProt P36888).
T2 sequence (P36888 whole entry): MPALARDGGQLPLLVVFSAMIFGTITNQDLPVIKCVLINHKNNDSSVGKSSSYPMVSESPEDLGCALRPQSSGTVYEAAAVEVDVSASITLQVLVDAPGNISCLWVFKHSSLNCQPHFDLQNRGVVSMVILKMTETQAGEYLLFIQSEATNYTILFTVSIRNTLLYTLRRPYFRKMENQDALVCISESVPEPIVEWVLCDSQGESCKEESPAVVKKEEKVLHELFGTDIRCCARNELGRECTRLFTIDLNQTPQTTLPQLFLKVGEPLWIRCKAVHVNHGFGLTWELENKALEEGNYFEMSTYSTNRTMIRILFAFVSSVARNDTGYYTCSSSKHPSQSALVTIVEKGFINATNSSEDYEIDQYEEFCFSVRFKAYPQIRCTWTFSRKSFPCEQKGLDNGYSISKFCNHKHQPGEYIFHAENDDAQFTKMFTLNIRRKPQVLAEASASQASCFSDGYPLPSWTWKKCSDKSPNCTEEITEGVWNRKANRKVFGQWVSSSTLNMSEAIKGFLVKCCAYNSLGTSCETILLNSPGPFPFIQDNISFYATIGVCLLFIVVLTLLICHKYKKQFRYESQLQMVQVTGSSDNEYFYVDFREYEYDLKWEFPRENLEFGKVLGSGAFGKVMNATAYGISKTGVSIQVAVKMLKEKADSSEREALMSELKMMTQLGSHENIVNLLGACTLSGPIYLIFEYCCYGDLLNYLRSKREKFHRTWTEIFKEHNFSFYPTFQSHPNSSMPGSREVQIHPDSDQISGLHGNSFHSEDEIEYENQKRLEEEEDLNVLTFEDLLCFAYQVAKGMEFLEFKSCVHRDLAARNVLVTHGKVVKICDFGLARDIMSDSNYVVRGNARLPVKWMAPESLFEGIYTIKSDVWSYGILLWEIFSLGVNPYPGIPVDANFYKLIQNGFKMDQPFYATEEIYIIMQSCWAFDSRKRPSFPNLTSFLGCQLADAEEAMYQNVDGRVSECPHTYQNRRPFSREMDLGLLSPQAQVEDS
The experiment in a line: Selectivity interaction (Kinase panel (Invitrogen, enzymatic assay)) EUB0000162b FLT3.

Assay [13] concerns the target Tyrosine-protein kinase Lck (Homo sapiens, UniProt P06239). Put plainly: Selectivity interaction (Kinase panel (33PanQinase(R) Activity Assay)) EUB0000877a LCK.
Assay [14] has as its target T3, Dual specificity tyrosine-phosphorylation-regulated kinase 2 (Homo sapiens, UniProt Q92630).
T3 sequence (Q92630 whole entry): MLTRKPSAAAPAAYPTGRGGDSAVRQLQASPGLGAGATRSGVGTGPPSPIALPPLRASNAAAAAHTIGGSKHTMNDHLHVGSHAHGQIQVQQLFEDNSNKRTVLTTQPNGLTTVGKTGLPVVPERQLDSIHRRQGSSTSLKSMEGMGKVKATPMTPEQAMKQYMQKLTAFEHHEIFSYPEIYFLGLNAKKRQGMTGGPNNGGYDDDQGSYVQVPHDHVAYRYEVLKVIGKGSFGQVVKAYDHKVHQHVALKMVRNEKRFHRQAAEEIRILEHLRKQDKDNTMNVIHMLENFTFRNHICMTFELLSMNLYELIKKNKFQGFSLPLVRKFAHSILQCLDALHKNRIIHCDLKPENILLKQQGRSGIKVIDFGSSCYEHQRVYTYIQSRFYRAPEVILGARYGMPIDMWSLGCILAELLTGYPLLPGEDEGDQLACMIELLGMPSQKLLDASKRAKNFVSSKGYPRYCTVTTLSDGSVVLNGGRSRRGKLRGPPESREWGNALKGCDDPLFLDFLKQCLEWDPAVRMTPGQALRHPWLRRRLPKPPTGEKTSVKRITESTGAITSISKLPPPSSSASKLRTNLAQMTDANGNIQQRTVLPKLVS
The experiment in a line: Selectivity interaction (Enzymatic assay (Eurofins)) EUB0001049a DYRK2.

Assay [15] addresses SRSF protein kinase 2 (Homo sapiens) (UniProt P78362). Put plainly: Selectivity interaction (KinomeScan (DiscoverX)) EUB0000695a SRPK2. The note with it: at 100 nM.
Assay [16] concerns the target Serine/threonine-protein kinase N2 (Homo sapiens, UniProt Q16513). The experiment in a line: Selectivity interaction (ProQinase) EUB0000171b PKN2.

Structures are written as SMILES.

Sequence of Serine/threonine-protein kinase N2 (Q16513 whole entry, looked up): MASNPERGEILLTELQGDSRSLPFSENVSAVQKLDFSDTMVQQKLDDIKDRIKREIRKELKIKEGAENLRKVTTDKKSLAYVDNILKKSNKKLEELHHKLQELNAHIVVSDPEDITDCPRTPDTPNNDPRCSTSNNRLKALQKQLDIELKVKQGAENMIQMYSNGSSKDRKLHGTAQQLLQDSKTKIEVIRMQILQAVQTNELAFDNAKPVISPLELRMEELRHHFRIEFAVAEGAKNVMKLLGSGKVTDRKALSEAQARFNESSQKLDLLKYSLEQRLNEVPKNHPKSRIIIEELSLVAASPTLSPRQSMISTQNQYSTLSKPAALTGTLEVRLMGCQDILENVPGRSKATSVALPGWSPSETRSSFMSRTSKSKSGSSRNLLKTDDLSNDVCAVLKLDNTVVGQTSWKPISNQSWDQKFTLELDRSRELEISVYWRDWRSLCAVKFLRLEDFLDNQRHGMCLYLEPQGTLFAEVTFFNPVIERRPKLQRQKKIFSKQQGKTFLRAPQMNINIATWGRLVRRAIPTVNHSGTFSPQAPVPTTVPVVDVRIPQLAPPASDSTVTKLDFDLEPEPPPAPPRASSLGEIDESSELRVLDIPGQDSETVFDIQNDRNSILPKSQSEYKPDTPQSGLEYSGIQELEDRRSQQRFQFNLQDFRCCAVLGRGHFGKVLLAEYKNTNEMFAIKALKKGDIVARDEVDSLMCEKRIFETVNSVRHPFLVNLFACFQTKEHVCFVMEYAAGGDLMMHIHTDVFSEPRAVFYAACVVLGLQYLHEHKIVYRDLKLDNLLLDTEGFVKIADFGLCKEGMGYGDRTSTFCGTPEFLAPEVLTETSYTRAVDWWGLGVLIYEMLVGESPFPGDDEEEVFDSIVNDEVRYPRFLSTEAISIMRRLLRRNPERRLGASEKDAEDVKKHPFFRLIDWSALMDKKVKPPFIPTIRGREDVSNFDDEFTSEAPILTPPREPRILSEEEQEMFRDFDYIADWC
Sequence of eIF-2-alpha kinase GCN2 (Homo sapiens), Q9P2K8 [S808G] (Q9P2K8 whole entry S808G): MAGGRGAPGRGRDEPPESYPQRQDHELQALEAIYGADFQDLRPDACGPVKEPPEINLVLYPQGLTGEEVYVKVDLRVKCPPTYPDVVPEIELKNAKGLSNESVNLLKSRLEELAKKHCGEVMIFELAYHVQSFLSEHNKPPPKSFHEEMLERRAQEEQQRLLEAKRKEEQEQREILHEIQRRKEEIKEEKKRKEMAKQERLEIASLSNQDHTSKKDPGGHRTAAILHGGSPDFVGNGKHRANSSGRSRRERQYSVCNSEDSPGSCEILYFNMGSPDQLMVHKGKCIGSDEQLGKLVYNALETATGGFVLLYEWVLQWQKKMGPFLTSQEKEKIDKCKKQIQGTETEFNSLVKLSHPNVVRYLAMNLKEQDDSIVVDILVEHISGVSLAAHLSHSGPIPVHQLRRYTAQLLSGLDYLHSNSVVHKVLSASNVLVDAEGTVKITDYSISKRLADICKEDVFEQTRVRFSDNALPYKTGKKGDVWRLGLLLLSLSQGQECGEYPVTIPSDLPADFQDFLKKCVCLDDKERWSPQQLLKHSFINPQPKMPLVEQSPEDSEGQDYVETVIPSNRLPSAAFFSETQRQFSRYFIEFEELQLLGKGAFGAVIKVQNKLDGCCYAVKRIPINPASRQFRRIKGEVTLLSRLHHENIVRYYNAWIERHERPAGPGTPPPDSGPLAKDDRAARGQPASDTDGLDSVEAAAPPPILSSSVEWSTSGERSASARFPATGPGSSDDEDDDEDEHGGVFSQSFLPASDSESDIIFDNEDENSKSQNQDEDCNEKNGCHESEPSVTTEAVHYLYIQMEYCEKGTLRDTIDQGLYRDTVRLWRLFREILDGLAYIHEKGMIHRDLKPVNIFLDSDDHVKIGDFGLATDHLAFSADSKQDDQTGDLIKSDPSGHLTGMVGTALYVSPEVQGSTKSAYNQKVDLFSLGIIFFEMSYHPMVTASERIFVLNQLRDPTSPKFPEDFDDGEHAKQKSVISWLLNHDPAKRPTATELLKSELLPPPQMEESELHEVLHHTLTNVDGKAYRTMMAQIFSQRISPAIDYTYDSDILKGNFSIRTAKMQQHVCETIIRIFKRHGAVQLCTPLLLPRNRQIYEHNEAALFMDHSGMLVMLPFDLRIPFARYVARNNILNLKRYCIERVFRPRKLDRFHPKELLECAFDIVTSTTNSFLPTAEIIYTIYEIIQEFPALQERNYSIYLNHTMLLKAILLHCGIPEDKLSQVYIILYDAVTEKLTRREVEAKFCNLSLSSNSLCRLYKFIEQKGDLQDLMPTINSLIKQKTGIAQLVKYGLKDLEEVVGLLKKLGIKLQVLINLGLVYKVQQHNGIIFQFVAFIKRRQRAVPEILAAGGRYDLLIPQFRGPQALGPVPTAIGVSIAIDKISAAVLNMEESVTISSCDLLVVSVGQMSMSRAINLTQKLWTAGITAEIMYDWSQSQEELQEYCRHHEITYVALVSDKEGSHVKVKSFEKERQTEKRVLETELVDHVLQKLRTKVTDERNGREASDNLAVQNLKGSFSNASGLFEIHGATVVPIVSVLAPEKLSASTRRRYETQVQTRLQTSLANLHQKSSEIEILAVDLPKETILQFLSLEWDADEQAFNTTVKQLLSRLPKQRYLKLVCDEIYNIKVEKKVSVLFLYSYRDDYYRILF
Sequence of Mitogen-activated protein kinase kinase kinase kinase 5 (Homo sapiens) (Q9Y4K4 whole entry, looked up): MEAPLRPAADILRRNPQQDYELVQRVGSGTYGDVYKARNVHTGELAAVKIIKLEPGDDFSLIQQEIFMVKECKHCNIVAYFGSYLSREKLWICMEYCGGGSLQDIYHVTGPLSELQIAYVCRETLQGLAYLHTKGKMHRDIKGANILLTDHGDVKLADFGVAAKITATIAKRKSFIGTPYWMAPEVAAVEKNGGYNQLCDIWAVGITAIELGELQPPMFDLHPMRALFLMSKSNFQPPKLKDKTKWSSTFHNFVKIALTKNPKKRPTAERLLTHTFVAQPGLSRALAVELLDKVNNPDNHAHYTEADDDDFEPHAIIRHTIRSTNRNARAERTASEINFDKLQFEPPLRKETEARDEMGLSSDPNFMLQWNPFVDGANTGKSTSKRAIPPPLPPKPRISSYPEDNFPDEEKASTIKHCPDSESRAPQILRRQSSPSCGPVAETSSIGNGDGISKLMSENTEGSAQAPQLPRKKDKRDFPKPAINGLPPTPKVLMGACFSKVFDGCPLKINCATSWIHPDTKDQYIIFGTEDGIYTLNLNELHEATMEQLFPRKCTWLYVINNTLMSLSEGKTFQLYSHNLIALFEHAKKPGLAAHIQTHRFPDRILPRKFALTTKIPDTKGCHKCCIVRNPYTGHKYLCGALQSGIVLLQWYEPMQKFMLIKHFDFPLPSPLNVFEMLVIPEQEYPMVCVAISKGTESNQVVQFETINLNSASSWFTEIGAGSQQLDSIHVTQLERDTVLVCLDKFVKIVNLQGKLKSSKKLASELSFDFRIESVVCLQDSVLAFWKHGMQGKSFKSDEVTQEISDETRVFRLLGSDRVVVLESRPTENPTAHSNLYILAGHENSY
Sequence of Tyrosine-protein kinase Lck (P06239 whole entry): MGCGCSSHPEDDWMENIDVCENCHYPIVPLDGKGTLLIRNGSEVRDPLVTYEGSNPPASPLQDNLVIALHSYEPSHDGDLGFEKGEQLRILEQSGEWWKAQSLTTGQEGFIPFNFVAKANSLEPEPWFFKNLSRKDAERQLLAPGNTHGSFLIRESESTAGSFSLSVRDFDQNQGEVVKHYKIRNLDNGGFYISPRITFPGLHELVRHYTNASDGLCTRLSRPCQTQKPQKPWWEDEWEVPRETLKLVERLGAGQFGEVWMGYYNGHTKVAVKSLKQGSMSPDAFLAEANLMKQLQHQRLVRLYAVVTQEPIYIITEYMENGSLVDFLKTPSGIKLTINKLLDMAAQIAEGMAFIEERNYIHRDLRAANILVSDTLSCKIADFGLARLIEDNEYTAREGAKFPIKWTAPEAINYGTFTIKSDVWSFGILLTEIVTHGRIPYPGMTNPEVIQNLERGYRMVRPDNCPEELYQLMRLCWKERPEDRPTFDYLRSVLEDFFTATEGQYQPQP
Sequence of SRSF protein kinase 2 (Homo sapiens) (P78362 whole entry, looked up): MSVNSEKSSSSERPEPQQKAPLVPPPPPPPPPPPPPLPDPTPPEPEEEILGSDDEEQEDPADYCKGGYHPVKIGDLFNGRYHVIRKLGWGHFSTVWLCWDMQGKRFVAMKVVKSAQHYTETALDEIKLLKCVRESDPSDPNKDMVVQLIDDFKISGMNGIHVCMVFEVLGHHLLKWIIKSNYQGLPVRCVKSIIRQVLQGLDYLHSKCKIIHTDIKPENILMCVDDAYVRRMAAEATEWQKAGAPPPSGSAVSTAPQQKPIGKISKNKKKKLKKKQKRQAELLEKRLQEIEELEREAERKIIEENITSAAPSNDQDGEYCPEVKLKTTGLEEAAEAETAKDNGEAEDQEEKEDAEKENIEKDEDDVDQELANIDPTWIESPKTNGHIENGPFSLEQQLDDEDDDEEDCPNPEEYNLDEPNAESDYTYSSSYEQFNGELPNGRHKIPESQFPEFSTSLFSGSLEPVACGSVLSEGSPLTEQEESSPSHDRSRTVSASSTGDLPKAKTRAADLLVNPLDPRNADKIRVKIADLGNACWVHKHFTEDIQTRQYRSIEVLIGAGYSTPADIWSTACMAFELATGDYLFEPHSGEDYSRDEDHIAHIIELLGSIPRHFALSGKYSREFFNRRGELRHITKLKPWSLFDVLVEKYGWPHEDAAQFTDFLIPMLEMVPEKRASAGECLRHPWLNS

Regarding `C=CC(=O)Nc1ccc(C(=O)Nc2[nH]nc3c2CN(C(=O)N[C@H](CN(C)C)c2ccccc2)C3(C)C)cc1`, the % of engagement in assay [1] was 6%.
As for `COc1cc(N(C)c2ccnc3ccc(C(F)(F)F)cc23)cc(OC)c1OC`, the % binding in [2] worked out at 41%; in assay [3], 44%; in assay [4], 81%; in assay [5], 69%; in assay [6], 93%; in assay [7] it was 90%. In addition, the figures for the % binding in assay [8] and in [9] were 92% and 83%, respectively.
Take `CN(C)CCOc1ccc(-c2nc(-c3ccncc3)c(-c3ccc4c(c3)CC/C4=N\O)[nH]2)cc1`: the % of control in assay [10] was found to be 97%.
Regarding `CCn1c(-c2nc3cc(C(=O)N4CCCC(N)C4)ccc3n2C)cc2ccccc21` (configuration not stated), in assay [11], the pXC50 was < 4.8 M.
In turn, `CN(C)C(=O)Cn1cc(-c2ccc(-c3cncc4ccccc34)cc2)cn1` gave an IC50 in assay [12] of 1.36 µM.
In the case of `CCC(=O)N1CC[C@H](Nc2ncnc3c2CN(c2cnc(OC)c(C(F)(F)F)c2)CC3)C1` [LENIOLISIB], the IC50 in [13] is > 10 µM.
For `COc1cc(Nc2nc(C)cc(-c3cnn4nc(OC)ccc34)n2)cc(C(F)(F)F)c1`, the IC50 in [14] was > 10 µM.
On to `Cc1cc(F)c(C(=O)Nc2cccc(-c3nncn3C(C)C)n2)cc1-n1cnc(C2CC2)c1`, for which the % of control in assay [15] was 100%.
`C=CC(=O)Nc1cccc(C(=O)Nc2ccc(Nc3cc(-c4[nH]c(SC)nc4C)ccn3)cc2)c1`: the % of control in assay [16] (at 1 µM) came out at 90%; in assay [16] (at 5 µM) it was 76%.

As a reminder, the IC50 is the concentration that gives 50% inhibition. A higher IC50 goes with weaker potency in that assay.

The record behind these values is ChEMBL document CHEMBL5465560, “Selectivity Literature for EUbOPEN Chemogenomic Library” (2024).
